Reference: patent US20200131495A1, “PROTEINS DERIVED FROM CLPB AND USES THEREOF” (priority 2017, published 2020)

What was measured:
MC1R = MC1R (Mus musculus, UniProt Q01727); details: Ericson et al., 2015; cited from earlier work
MCSR = MCSR (Mus musculus, UniProt P41149); details: Ericson et al., 2015; cited from earlier work
MC3R = MC3R (Mus musculus, UniProt P33033); details: Ericson et al., 2015; cited from earlier work
MC4R = MC4R (Mus musculus, UniProt P56450); details: Ericson et al., 2015; cited from earlier work
[1] = system: intestinal tissues from rats (colons and ileums); assay: PYY secretion experiment in rat colons and ileums; format: cell-based; details: 10 nM, 20 min, control PBS, FIG. 6
Procedure: Colons and ileums were removed from male rats (Janvier Labs, Genest-Saint-Isle, France). They were washed with ice-cold PBS, then with ice-cold L-15 (Leibowitz) medium (PAA, Yeovil, UK). Then they were digested with 0.4 mg/mL collagenase XI (Sigma, Poole, UK) in High-Glucose DMEM (+1% L-Glutamine+1% Penicillin+1% Streptomycin+1% and non-essential amino acids) at 37° C. during 10 min. Cells suspensions were centrifuged (10 min at 400 g) and the pellets were resuspended in High-Glucose DMEM (the same that previously but with 10% Fetal Bovine Serum (FBS). Cell suspensions were filtered through a nylon mesh (pore size 100 Jpm) (Merck Millipore, Mass., USA) and plated onto 24 well, 1% Matrigel-coated plates (Corning, N.Y., US). The plates were incubated overnight at 37° C. in an atmosphere of […] and 5% CO2.
After 24 hours of culture, cells were incubated for 20 min in a water bath with secretion buffer (4 mM KCl, 138 mM NaCl, 1.2 mM NaHCO3, 1.2 mM NaH2PO4, 2.6 mM CaCl2), 1.2 mM MgCl2 and 10 mM HEPES) adjusted at pH 7.4) and full-length ClpB or the ˜25 kDa fragment at a concentration of 10 nM. […]
After incubation, the cells were treated with lysis buffer (50 mmol/L Tris-HCl, 150 mmol/L NaCl, 1% IGEPAL CA-630, 0.5% deoxycholic acid+cocktail of protease inhibitor tablets complete without EDTA) to extract intracellular peptides. […] Lysates were stored at −80° C. if not analyzed immediately. […]

[2] = Food intake of mice in BioDAQ cages after i.p. or oral administration; format: in vivo; details: for food intake in mice, oral administration: 60 pmol in 200 μL, FIG. 8
Procedure: Male C57/B16 mice were placed in the BioDAQ mouse cages (Research Diets, Inc., New Brunswick, N.J.) alone to measure the food intake. Each mouse was administered either physiological serum (n=6), full-length ClpB, or fragment of ˜25 kDa.
Two modes of administration were tested: intraperitoneal (i.p.) injection at a concentration of 2 pmol in a volume of 200 μL (n=8), and oral administration at a concentration of 60 pmol in a volume of 200 μL (n=10).

anti-α-MSH antibody = assay: Western blot revealed with anti-α-MSH antibody; format: binding, rabbit; details: FIG. 3 (trypsinised ClpB); FIG. 4 (colic mucosa, hypothalamus, plasma of mice and rats)
Procedure: First the fragmentation was performed on different conditions: ClpB diluted at 1/10 (from the stock at 5 mg/mL) and ClpB 1/10 with 0.0025% trypsin. Those different conditions were placed during 20 minutes at 37° C. After incubation, the fragmentation was immediately stopped by placing tubes on ice and western blot was performed.
After fragmentation, Leamli solution without J-mercaptoethanol was added into tubes to perform western on 20% acrylamide SDS gel in Tris-Glycine buffer (BioRad, Hercules, USA) and transferred to a nitrocellulose membrane (GE Healthcare, Orsay, France). Then, the membrane was blocked for at least 1 h at room temperature with 5% (w/v) non-fat dry milk in TBS (10 mmol/L Tris, pH 8; 150 mmol/L NaCl) plus 0.05% (w/v) Tween 20. After blocking, the […] The membrane was incubated overnight at 4° C. with rabbit polyclonal anti-α-MSH antibodies (1:1000, Phoenix Pharmaceuticals). After three washes in a blocking solution of 5% (w/v) non-fat dry milk in TBS/0.05% Tween 20, membranes were incubated for 1 h with peroxidase-conjugated anti rabbit IgG (1:1000, SantaCruz Biotechnology). […]
Tissues were incubated with extracted buffer (PBS+protease inhibitor (1%)). The volume added depends of sample quantity. […] The supernatant was stored at −80° C. if not analysed immediately. […]

Sequence of MC3R (P33033 whole entry): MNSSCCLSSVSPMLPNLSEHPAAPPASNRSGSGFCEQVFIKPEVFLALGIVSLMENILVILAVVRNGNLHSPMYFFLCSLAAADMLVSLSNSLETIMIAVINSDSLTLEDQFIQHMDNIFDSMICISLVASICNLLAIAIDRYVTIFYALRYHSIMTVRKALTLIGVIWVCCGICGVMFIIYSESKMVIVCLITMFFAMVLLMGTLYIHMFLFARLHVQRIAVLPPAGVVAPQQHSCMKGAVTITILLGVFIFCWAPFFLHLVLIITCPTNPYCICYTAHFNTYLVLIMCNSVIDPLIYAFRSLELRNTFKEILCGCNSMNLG
Sequence of MC4R (P56450 whole entry): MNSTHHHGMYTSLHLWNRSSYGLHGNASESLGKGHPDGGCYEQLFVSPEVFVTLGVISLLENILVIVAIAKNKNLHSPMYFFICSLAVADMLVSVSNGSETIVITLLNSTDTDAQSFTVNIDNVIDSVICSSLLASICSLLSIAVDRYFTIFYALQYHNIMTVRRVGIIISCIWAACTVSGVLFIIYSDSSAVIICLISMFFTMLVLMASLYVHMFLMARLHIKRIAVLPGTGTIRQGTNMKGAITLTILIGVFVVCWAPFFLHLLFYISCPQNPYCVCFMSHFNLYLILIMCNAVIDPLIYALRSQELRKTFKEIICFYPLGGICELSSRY
Sequence of MC1R (Q01727 whole entry): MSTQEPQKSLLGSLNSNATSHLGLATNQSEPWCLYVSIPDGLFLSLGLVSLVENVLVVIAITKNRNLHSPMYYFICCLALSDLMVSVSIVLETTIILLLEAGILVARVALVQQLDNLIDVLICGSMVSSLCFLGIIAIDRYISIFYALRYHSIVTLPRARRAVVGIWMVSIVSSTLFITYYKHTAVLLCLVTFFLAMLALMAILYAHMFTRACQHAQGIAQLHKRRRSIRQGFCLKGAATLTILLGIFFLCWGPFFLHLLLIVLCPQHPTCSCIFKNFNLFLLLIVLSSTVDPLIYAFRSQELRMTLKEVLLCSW
Sequence of MCSR (P41149 whole entry): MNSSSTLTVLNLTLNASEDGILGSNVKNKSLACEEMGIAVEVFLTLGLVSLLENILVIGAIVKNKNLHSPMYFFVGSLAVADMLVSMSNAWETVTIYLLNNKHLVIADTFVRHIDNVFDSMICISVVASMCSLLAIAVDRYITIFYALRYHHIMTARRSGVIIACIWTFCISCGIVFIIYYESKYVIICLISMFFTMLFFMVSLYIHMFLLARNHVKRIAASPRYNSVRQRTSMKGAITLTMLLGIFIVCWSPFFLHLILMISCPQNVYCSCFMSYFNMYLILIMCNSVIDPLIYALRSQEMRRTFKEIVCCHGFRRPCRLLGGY

| Substance | MC1R agonist activity (MC1R) | activity on MCSR (MCSR) | activity on MC3R (MC3R) | activity on MC4R (MC4R) | PYY secretion compared to the control [1] | duration of the decrease of food intake ([2]; i.p. 2 pmol and oral 60 pmol in 200 μL, FIGS. 7 and 8) | food intake in mice ([2]; i.p. 2 pmol and oral 60 pmol in 200 μL, FIGS. 7 and 8, compared with full-length ClpB protein) | food intake in mice, oral administration [2] | recognition by anti-α-MSH antibodies (Western blot) (anti-α-MSH antibody) |
| --- | --- | --- | --- | --- | --- | --- | --- | --- | --- |
| AEIAEVLARWTGIPV (ClpB fragment) [modified short ClpB fragment studied by Ericson et al] | full micromolar MC1R agonist | partial activities | partial activities | not on MC4R |  |  |  |  |  |
| fragment of ˜25 kDa: sequence of ClpB from amino acid 537 to amino acid 756 (SEQ ID NO: 22), produced by trypsinisation of ClpB |  |  |  |  | increase PYY secretion | at least 90 min | decreases food intake in mice at least as much as the full-length ClpB protein | decreases food intake | revealed with polyclonal anti-α-MSH |
| full-length ClpB: chaperone protein ClpB (caseinolytic protease B), ˜96 kDa, 857 amino acids, from E. Coli K12 |  |  |  |  | increase PYY secretion |  |  | no such effect |  |
